Reference: ChEMBL document CHEMBL4715821, “Discovery of 4-ethoxy-7H-pyrrolo[2,3-d]pyrimidin-2-amines as potent, selective and orally bioavailable LRRK2 inhibitors” (Bioorg Med Chem Lett, 2018)

Key:
[1] = molecular target: Serine/threonine-protein kinase Nek5 (Homo sapiens) (UniProt Q6P3R8); assay: Inhibition of wild-type human partial length NEK5 (M1 to M279 residues) expressed in bacterial expression system assessed as residual activity at 1 uM by Kinomescan method relative to control
[2] = molecular target: Ribosomal protein S6 kinase alpha-1 (Homo sapiens) (UniProt Q15418); assay: Inhibition of wild-type human partial length N-terminal RSK1 kinase domain 1 (M1 to E388 residues) expressed in bacterial expression system assessed as residual activity at 1 uM by Kinomescan method relative to control
[3] = molecular target: MAP kinase-activated protein kinase 2 (Homo sapiens) (UniProt P49137); assay: Inhibition of wild-type human partial length MAPKAPK2 (V48 to D345 residues) expressed in bacterial expression system assessed as residual activity at 1 uM by Kinomescan method relative to control
[4] = Dose normalized AUC (0 to t) in Han-Wistar rat blood at 10 mg/kg, po measured up to 7 hrs by UPLC-MS/MS analysis; assay type: ADME, organism-based; settings: in vivo
[5] = molecular target: Serine/threonine-protein kinase ULK1 (Homo sapiens) (UniProt O75385); assay: Inhibition of wild-type human partial length ULK1 (M1 to T309 residues) expressed in mammalian expression system assessed as residual activity at 1 uM by Kinomescan method relative to control
[6] = molecular target: Protein kinase C delta type (Homo sapiens) (UniProt Q05655); assay: Inhibition of PKCdelta (unknown origin) assessed as residual activity at 1 uM by Kinomescan method relative to control
[7] = molecular target: Protein kinase C eta type (Homo sapiens) (UniProt P24723); assay: Inhibition of PKCeta (unknown origin) assessed as residual activity at 1 uM by Kinomescan method relative to control
[8] = molecular target: Activated CDC42 kinase 1 (Homo sapiens) (UniProt Q07912); assay: Inhibition of ACK1 (unknown origin) assessed as residual activity at 1 uM relative to control
[9] = molecular target: Serine/threonine-protein kinase N3 (Homo sapiens) (UniProt Q6P5Z2); assay: Inhibition of PKN3 (unknown origin) assessed as residual activity at 1 uM by Kinomescan method relative to control
[10] = molecular target: Mitogen-activated protein kinase 8 (Homo sapiens) (UniProt P45983); assay: Inhibition of wild-type human full length JNK1 (M1 to Q384 residues) expressed in mammalian expression system assessed as residual activity at 1 uM by Kinomescan method relative to control
[11] = molecular target: Rho-associated protein kinase 1 (Homo sapiens) (UniProt Q13464); assay: Inhibition of wild-type human partial length ROCK1 (M1 to R415 residues) expressed in mammalian expression system assessed as residual activity at 1 uM by Kinomescan method relative to control
[12] = molecular target: Activin receptor type-1B (Homo sapiens) (UniProt P36896); assay: Inhibition of wild-type human ACVR1B (S187 to I505 residues) expressed in bacterial expression system assessed as residual activity at 1 uM by Kinomescan method relative to control
[13] = molecular target: Tyrosine-protein kinase Yes (Homo sapiens) (UniProt P07947); assay: Inhibition of wild-type human partial length YES (T257 to L543 residues) expressed in bacterial expression system assessed as residual activity at 1 uM by Kinomescan method relative to control
[14] = molecular target: Casein kinase I isoform gamma-2 (Homo sapiens) (UniProt P78368); assay: Inhibition of CK1g2 (unknown origin) assessed as residual activity at 1 uM by Kinomescan method relative to control
[15] = molecular target: Serine/threonine-protein kinase PAK 1 (Homo sapiens) (UniProt Q13153); assay: Inhibition of wild-type human partial length PAK1 (S149 to H545 residues) expressed in bacterial expression system assessed as residual activity at 1 uM by Kinomescan method relative to control
[16] = molecular target: Tyrosine-protein kinase SYK (Homo sapiens) (UniProt P43405); assay: Inhibition of wild-type human partial length SYK (D354 to N635 residues) expressed in bacterial expression system assessed as residual activity at 1 uM by Kinomescan method relative to control
[17] = molecular target: Testis-specific serine/threonine-protein kinase 2 (Homo sapiens) (UniProt Q96PF2); assay: Inhibition of TSSK2 (unknown origin) assessed as residual activity at 1 uM by Kinomescan method relative to control
[18] = molecular target: Casein kinase I isoform delta (Homo sapiens) (UniProt P48730); assay: Inhibition of CK1D (unknown origin) assessed as residual activity at 1 uM by Kinomescan method relative to control
[19] = molecular target: Tau-tubulin kinase 1 (Homo sapiens) (UniProt Q5TCY1); assay: Inhibition of TTBK1 (unknown origin) assessed as residual activity at 1 uM by Kinomescan method relative to control
[20] = molecular target: Serine/threonine-protein kinase 25 (Homo sapiens) (UniProt O00506); assay: Inhibition of wild-type human partial length YSK1 (V14 to H295 residues) expressed in bacterial expression system assessed as residual activity at 1 uM by Kinomescan method relative to control
[21] = molecular target: Ephrin type-B receptor 1 (Homo sapiens) (UniProt P54762); assay: Inhibition of wild-type human partial length EPHB1 (P589 to T911 residues) expressed in bacterial expression system assessed as residual activity at 1 uM by Kinomescan method relative to control
[22] = molecular target: Dual specificity tyrosine-phosphorylation-regulated kinase 2 (Homo sapiens) (UniProt Q92630); assay: Inhibition of wild-type human full length DYRK2 (M1 to S528 residues) expressed in mammalian expression system assessed as residual activity at 1 uM by Kinomescan method relative to control
[23] = molecular target: Ephrin type-A receptor 4 (Homo sapiens) (UniProt P54764); assay: Inhibition of wild-type human partial length EPHA4 (T601 to R897 residues) expressed in bacterial expression system assessed as residual activity at 1 uM by Kinomescan method relative to control
[24] = molecular target: Serine/threonine-protein kinase 33 (Homo sapiens) (UniProt Q9BYT3); assay: Inhibition of wild-type human full length STK33 (M1 to L514 residues) expressed in bacterial expression system assessed as residual activity at 1 uM by Kinomescan method relative to control
[25] = molecular target: TGF-beta receptor type-2 (Homo sapiens) (UniProt P37173); assay: Inhibition of wild-type human partial length TGFBR2 (I218 to K567 residues) expressed in bacterial expression system assessed as residual activity at 1 uM by Kinomescan method relative to control
[26] = molecular target: Cyclin-Y/Cyclin-dependent kinase 16 (Homo sapiens) (UniProt Q00536+Q8ND76); assay: Inhibition of CDK16/Cyclin Y (unknown origin) assessed as residual activity at 1 uM by Kinomescan method relative to control; assay type: protein-complex assay
[27] = molecular target: Serine/threonine-protein kinase MARK1 (Homo sapiens) (UniProt Q9P0L2); assay: Inhibition of wild-type human partial length MARK1 (Q30 to T341 residues) expressed in bacterial expression system assessed as residual activity at 1 uM by Kinomescan method relative to control
[28] = In vivo inhibition of LRRK2 in Han-Wistar rat assessed as reduction in Ser935 phosphorylation in brain at 100 mg/kg, po by Western blot analysis; assay type: functional; set-up: scale not given: the % may be the effect or the level left

Sequence of Tyrosine-protein kinase Yes (Homo sapiens) (P07947 2-543 limits assumed): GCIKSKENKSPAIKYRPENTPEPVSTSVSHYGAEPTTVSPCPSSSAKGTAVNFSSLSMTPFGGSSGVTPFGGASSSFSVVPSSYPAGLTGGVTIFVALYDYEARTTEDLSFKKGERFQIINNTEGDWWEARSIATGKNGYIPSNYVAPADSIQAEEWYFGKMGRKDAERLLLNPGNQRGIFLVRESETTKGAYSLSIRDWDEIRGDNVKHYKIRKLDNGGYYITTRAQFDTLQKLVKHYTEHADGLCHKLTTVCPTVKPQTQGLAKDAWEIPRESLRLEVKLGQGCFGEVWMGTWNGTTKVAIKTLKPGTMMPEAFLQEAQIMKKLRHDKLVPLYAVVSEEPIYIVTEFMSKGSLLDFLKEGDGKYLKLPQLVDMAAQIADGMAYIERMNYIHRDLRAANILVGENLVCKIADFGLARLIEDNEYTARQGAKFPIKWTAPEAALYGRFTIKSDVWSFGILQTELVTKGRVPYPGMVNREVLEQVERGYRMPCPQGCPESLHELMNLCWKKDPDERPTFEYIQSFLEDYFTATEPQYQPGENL
Sequence of Serine/threonine-protein kinase Nek5 (Homo sapiens) (Q6P3R8 whole entry, the tested form may be a part): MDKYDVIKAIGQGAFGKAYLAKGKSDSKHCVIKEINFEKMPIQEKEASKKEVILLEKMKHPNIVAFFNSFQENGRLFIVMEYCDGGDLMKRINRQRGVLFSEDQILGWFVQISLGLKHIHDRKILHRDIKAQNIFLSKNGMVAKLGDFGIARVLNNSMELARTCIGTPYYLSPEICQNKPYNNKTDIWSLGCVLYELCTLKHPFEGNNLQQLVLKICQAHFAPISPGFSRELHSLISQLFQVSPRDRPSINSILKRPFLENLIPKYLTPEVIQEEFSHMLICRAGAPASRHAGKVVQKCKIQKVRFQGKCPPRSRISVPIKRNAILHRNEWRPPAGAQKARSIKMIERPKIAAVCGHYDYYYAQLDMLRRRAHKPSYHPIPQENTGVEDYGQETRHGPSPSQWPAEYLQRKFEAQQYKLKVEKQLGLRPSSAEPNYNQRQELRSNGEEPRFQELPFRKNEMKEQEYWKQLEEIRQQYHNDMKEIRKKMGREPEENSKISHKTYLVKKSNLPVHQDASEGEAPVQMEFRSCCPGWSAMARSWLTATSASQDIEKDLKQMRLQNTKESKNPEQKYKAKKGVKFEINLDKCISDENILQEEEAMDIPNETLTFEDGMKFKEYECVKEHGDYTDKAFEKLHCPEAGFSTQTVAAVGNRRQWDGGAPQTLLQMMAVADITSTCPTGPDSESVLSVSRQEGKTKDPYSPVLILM
Sequence of Dual specificity tyrosine-phosphorylation-regulated kinase 2 (Homo sapiens) (Q92630 whole entry, the tested form may be a part): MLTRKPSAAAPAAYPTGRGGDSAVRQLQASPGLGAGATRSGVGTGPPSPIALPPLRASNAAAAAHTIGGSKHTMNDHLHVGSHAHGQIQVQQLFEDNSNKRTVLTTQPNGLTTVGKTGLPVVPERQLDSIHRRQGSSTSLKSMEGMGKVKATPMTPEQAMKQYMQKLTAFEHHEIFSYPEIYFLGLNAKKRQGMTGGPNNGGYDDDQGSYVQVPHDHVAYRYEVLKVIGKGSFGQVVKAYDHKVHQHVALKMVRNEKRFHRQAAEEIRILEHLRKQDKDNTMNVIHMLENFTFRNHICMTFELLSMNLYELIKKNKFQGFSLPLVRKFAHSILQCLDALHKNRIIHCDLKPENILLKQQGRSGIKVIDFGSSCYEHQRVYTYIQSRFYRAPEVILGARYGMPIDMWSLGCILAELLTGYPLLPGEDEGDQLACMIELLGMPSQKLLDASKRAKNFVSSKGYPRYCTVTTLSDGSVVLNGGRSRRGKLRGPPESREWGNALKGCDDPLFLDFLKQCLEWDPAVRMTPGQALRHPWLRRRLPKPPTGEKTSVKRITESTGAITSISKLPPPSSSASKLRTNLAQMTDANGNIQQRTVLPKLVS
Sequence of Activin receptor type-1B (Homo sapiens) (P36896 whole entry, the tested form may be a part): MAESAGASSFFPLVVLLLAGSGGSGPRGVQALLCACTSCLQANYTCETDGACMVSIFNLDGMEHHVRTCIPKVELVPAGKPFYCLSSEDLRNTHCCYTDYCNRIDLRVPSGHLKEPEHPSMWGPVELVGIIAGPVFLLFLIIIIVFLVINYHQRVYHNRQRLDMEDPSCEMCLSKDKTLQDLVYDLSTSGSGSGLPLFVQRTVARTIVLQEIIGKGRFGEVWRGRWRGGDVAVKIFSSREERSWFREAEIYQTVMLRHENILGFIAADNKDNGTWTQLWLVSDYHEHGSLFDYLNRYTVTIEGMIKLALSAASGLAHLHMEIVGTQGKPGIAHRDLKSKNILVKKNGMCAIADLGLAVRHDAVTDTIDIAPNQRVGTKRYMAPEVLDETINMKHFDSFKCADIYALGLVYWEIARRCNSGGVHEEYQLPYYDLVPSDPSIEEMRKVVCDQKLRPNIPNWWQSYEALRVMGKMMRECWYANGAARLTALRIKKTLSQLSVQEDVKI
Sequence of Rho-associated protein kinase 1 (Homo sapiens) (Q13464 2-1354 limits assumed): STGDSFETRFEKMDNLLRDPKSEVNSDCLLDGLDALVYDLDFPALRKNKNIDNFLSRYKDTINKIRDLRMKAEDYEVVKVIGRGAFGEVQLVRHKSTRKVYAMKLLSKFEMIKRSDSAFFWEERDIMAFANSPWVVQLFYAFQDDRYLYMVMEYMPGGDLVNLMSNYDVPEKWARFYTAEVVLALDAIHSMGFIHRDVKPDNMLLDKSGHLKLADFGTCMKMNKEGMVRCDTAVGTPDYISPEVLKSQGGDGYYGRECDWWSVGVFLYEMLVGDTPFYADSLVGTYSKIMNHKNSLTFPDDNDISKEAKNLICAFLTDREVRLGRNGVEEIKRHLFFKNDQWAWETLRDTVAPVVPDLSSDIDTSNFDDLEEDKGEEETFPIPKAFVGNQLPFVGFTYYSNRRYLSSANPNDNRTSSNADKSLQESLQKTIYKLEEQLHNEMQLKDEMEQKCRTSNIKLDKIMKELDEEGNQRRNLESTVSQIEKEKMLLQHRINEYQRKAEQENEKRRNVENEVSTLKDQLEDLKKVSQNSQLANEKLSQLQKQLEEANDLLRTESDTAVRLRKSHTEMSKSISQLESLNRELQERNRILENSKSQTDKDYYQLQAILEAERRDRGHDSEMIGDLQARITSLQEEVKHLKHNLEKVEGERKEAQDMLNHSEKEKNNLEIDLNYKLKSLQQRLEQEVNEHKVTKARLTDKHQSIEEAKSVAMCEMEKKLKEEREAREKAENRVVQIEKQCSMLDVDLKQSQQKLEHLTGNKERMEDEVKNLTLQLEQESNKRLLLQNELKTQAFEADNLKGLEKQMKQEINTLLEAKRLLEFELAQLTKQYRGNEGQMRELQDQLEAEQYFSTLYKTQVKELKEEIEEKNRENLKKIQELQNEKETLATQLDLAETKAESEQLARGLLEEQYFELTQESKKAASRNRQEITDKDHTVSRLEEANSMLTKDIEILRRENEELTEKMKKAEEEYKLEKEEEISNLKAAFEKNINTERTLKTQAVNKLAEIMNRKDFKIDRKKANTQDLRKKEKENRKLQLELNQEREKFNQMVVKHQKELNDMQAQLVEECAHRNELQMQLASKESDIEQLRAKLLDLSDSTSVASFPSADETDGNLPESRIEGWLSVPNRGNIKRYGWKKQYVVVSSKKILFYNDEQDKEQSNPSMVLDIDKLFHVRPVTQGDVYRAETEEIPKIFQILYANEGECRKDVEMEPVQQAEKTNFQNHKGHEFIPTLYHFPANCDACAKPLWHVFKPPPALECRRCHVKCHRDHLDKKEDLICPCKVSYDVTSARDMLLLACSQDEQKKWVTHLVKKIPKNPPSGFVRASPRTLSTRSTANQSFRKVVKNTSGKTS
Sequence of Serine/threonine-protein kinase N3 (Homo sapiens) (Q6P5Z2 whole entry, looked up, the tested form may be a part): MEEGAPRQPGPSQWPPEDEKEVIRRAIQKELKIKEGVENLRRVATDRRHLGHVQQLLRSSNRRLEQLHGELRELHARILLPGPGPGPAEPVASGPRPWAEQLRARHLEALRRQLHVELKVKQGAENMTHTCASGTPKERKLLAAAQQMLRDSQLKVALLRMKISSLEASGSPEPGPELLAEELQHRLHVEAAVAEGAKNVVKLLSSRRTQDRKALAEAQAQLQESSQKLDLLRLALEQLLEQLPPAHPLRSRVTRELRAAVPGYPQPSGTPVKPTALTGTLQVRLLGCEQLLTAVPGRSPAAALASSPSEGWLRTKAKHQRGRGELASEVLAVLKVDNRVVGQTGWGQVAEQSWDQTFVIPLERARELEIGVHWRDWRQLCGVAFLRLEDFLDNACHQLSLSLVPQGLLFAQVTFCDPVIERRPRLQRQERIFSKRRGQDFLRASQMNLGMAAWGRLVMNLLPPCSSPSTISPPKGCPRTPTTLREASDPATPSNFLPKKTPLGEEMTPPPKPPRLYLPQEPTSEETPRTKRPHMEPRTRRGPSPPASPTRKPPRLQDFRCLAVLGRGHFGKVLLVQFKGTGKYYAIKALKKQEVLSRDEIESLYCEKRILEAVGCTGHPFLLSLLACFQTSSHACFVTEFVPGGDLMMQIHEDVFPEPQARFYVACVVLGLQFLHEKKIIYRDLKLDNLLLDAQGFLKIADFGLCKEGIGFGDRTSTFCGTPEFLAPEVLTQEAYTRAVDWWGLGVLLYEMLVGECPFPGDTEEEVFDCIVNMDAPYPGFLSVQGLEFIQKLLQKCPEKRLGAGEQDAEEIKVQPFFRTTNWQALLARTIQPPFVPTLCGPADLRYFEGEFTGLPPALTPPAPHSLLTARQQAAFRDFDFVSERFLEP
Sequence of Casein kinase I isoform delta (Homo sapiens) (P48730 whole entry, looked up, canonical isoform): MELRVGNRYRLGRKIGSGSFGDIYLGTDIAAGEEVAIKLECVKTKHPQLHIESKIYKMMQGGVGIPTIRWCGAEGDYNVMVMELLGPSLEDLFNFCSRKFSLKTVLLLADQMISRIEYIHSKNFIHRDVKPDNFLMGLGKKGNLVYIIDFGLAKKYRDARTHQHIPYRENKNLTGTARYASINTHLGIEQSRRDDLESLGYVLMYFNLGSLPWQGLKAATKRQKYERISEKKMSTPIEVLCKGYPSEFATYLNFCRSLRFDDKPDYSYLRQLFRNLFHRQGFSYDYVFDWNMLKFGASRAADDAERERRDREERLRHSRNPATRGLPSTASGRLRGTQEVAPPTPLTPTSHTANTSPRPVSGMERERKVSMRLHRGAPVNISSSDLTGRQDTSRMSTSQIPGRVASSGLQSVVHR

CCOc1nc(Nc2ccc(C(=O)N3CCOCC3)cc2OC)nc2[nH]ccc12
Activity [1]: 94.8% | Activity [2]: 87.1% | Activity [3]: 91.6% | AUCt/dose [4]: 1034 ng·h/g/mg/kg | Activity [5]: 86.1% | Activity [6]: 99.8% | Activity [7]: 99.2% | Activity [8]: 27.9% | Activity [9]: 96.5% | Activity [10]: 40.5% | Activity [11]: 94.2% | Activity [12]: 84.5% | Activity [13]: 94.4% | Activity [14]: 95.6% | Activity [15]: 95.3% | Activity [16]: 92.1% | Activity [17]: 20.9% | Activity [18]: 80.2% | Activity [19]: 103% | Activity [20]: 95.4% | Activity [21]: 100% | Activity [22]: 81.3% | Activity [23]: 107% | Activity [24]: 49.5% | Activity [25]: 104% | Activity [26]: 105% | Activity [27]: 98.5% | Activity [28]: 75%
